Like-named read-outs stand apart in the source and are kept apart here.
Assays:
[1] = test system: IL-4 stimulated expression of CD23 in human Ramos B cells (JAK-1 and JAK-3); assay: Assay for Ramos B-Cell Line Stimulated with IL-4 (CD23 upregulation, FACS); format: cell-based; conditions: read-out: IC50, Example 41
In short: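 Log-phase Ramos cells, 1 h compound pre-incubation at 37 °C; IL-4 50 units/mL final, 20-24 h; CD23-PE stain, FACS; IC50.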

[2] = test system: Primary human T-cells; assay: Primary Human T-Cell Proliferation Assay Stimulated with IL-2 (CellTiter-Glo); format: cell-based; conditions: read-out: IC50, Example 42
In short: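 Peripheral blood T-cells pre-activated with anti-CD3/anti-CD28 and IL-2 were washed free of IL-2, then cultured with compound plus IL-2 for 72 hours at 37° C, duplicate wells. Viability read as ATP by CellTiter-Glo luminescence; IC50 reported.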

[3] = Ramos B cells stimulated with IL-4, CD23 expression by FACS
[4] = primary human T-cells stimulated with IL-2, proliferation

Compound | IC50 [1, 3] [nM] | IC50 [2, 4] [nM] | IC50 ([1]; Ramos B-cell line stimulated with IL-4, CD23 expression by FACS) [nM] | IC50 ([2]; primary human T-cell proliferation stimulated with IL-2) [nM]
CCS(=O)(=O)N1CCc2cc(Nc3nc(Nc4ccc(C)c(S(N)(=O)=O)c4)ncc3F)ccc2C1 [VII-15, N2-(3-aminosulfonyl-4-methyl)phenyl-N4-[(N-ethylsulfonyl)-1,2,3,4-tetrahydroisoquinolin-6-yl]-5-fluoro-2,4-pyrimidinediamine] | 66.6 | 121 |  | 
Cc1ccc(Nc2ncc(F)c(Nc3ccc4c(c3)CNCC4)n2)cc1S(N)(=O)=O [VII-16, N2-(3-Aminosulfonyl-4-methylphenyl)-5-fluoro-N4-(1,2,3,4-tetrahydroisoquin-7-yl)-2,4-pyrimidinediamine] | 275 | 1070 |  | 
CNC(=O)N1CCc2ccc(Nc3nc(Nc4ccc(C)c(S(N)(=O)=O)c4)ncc3F)cc2C1 [VII-17, N2-(3-Aminosulfonyl-4-methylphenyl)-5-fluoro-N4-[2-(methylaminocarbonyl)-1,2,3,4-tetrahydroisoquin-7-yl]-2,4-pyrimidinediamine] | 353 | 2100 |  | 
Cc1ccc(Nc2ncc(F)c(Nc3ccc4c(c3)CN(C(=O)N(C)C)CC4)n2)cc1S(N)(=O)=O [VII-18, N2-(3-Aminosulfonyl-4-methylphenyl)-5-fluoro-N4-[2-(dimethylaminocarbonyl)-1,2,3,4-tetrahydroisoquin-7-yl]-2,4-pyrimidinediamine] | 227 | 839 |  | 
CNC(=O)N1CCCc2cc(Nc3nc(Nc4ccc(C)c(S(N)(=O)=O)c4)ncc3F)ccc21 [VII-19, N2-(3-Aminosulfonyl-4-methylphenyl)-5-fluoro-N4-[1-(methylaminocarbonyl)-1,2,3,4-tetrahydroquin-6-yl]-2,4-pyrimidinediamine] | 87.5 | 514 |  | 
COCCCn1ncc2cc(Nc3nc(Nc4cccc(S(N)(=O)=O)c4)ncc3F)ccc21 [VII-22, N2-(3-Aminosulfonylphenyl)-5-fluoro-N4-[1-(3-methoxypropyl)indazolin-5-yl]-2,4-pyrimidinediamine] | 111 | 128 |  | 
COCCn1ncc2cc(Nc3nc(Nc4cccc(S(N)(=O)=O)c4)ncc3F)ccc21 [VII-23, N2-(3-Aminosulfonylphenyl)-5-fluoro-N4-[1-(2-methoxyethyl)indazolin-5-yl]-2,4-pyrimidinediamine] | 129 | 161 |  | 
NC1CCOc2ccc(Nc3nc(Nc4cccc(S(N)(=O)=O)c4)ncc3F)cc21 (stereo not shown) [VII-28, N2-(3-Aminosulfonylphenyl)-N4-(chroman-4-amine-6-yl)-5-fluoro-2,4-pyrimidinediamine] | 36.7 | 709 |  | 
NC1CCOc2ccc(Nc3nc(Nc4ccc(S(N)(=O)=O)cc4)ncc3F)cc21 (stereo not shown) [VII-29, N2-(4-Aminosulfonylphenyl)-N4-(chroman-4-amine-6-yl)-5-fluoro-2,4-pyrimidinediamine] | 47.6 | 1460 |  | 
N#CCN1C(=O)CSc2ccc(Nc3nc(Nc4cccc(S(N)(=O)=O)c4)ncc3F)cc21 [VII-36, N2-(3-Aminosulphonylphenyl)-5-fluoro-N4-(3-oxo-4-cyanomethyl-benzo[1,4]thiazin-6-yl)-2,4-pyrimidinediamine] | 29.4 | 119 |  | 
CN1C(=O)C(C)(C)Oc2cc(Nc3nc(Nc4cccc(S(N)(=O)=O)c4)ncc3F)cnc21 [VII-42, N2-(3-Aminosulfonylphenyl)-N4-[2,2,4-trimethyl-3-oxo-5-pyrid[1,4]oxazin-7-yl]-5-fluoro-2,4-pyrimidinediamine] | 669 | 7280 |  | 
Cc1ccc(Nc2ncc(F)c(Nc3ccc4c(c3)NC(=O)CS4)n2)cc1S(N)(=O)=O [VII-45, N2-(3-Aminosulphonyl-4-methyl-phenyl)-5-fluoro-N4-(3-oxo-4H-benzo[1,4]thiazin-6-yl)-2,4-pyrimidinediamine] | 43.9 | 282 |  | 
CN1C(=O)CSc2ccc(Nc3nc(Nc4cccc(S(=O)(=O)N5CCCCC5)c4)ncc3F)cc21 [VII-50, 5-Fluoro-N4-(4-methyl-3-oxo-benz[1,4]thiazin-6-yl)-N2-(3-pipendinosulfonylphenyl)-2,4-pyrimidinediamine] | 350 | 856 |  | 
CS(=O)(=O)N1CCc2cc(Nc3nc(Nc4cccc(S(N)(=O)=O)c4)ncc3F)ccc21 [VII-60, N2-(3-Aminosulfonylphenyl)-5-fluoro-N4-[4-(1-methylsulfonyl)indolin-5-yl]-2,4-pyrimidinediamine] | 65 | 152 |  | 
CNS(=O)(=O)c1cc(Nc2ncc(F)c(Nc3ccc4c(c3)CCN4S(C)(=O)=O)n2)ccc1C [VII-62, 5-Fluoro-N2-[3-(N-methylaminosulfony)-4-methylphenyl]-N4-[4-(1-methylsulfonyl)indolin-5-yl]-2,4-pyrimidinediamine] | 104 | 144 |  | 
CS(=O)(=O)N1CCc2cc(Nc3nc(Nc4ccc(S(N)(=O)=O)cc4)ncc3F)ccc21 [VII-63] | 233 | 301 |  | 
COc1ccc(Nc2nc(Nc3cc(C)c4c(c3)S(=O)(=O)NC=N4)ncc2F)cc1Cl [VIII-3, N4-(3-Chloro-4-methoxyphenyl)-5-fluoro-N2-(5-methyl-2H-1,1-dioxo-1,2,4-benzothiadiazin-7-yl)-2,4-pyrimidinediamine] | 153 | 1840 |  | 
N2-(3-Aminosulfonyl-4-methylphenyl)-5-fluoro-N4-[4-(2-pyridinyl)-3-fluoromethyleneoxyphenyl]-2,4-pyrimidinediamine [Compound I-172] |  |  | 47.3 | 277
N2-(3-Aminosulphonylphenyl)-5-fluoro-N4-[4-(3-pyridinylmethyl)benzo[1,4]oxazin-7-yl]-2,4-pyrimidinediamine [VII-55] | 184 | 599 |  | 
N2-(3-Aminosulphonylphenyl)-5-fluoro-N4-[4-(3-pyridinylmethyl)benzo[1,4]oxazin-7-yl]-2,4-pyrimidinediamine [VII-56] | 185 | 1280 |  | 
N2-[3-Aminosulfonyl-4-(4-methylpiperazine-1-yl)phenyl]-N4-(3-cyanomethylene-1H-indol-6-yl)-5-fluoro-2,4-pyrimidinediamine [IX-17] | 108 | 815 |  | 
N2-[3-Aminosulfonyl-4-(4-methylpiperazine-1-yl)phenyl]-N4-(3-cyanomethylene-1H-indol-7-yl)-5-fluoro-2,4-pyrimidinediamine [IX-18] | 168 | 2400 |  | 
N4-(3-Chloro-4-cyanomethyleneoxyphenyl)-5-fluoro-N2-(5-methyl-2H-1,1-dioxide-1,2,4-benzothiadiazin-7-yl)-2,4-pyrimidinediamine [VIII-2] | 178 | 409 |  | 

Reference: patent US11827628B2, “Compositions and methods for inhibition of the JAK pathway” (Rigel Pharmaceuticals, Inc., priority 2005, dated 2023)
